Measured values reported in patent US8936809B2, “Method for treating prostate diseases based on local delivery of active substances” (Lidds AB, priority 2005, dated 2015).
Where “and” joins values, the source holds several entries; their conditions need not be identical. Equal values may be shown once.

How the values were obtained:
[1] = Plasma pharmacokinetics and tissue level after local administration of ceramic-based controlled release composition into dog prostate (Example 1); assay type: in vivo
Procedure: One week later, the same animals were given 2-hydroxy-flutamide locally by a controlled release pharmaceutical composition in the prostate tissue. The 2-hydroxy- flutamide doses were 0 mg (H1), 30 mg (H3), 60 mg (H2) and 120 mg (H4), and each dog was given one implant only. Where H1 was a control given the composition without 2-hydroxy-flutamide. All doses of 2-hydroxy-flutamide were given after an overnight fast. Dog 1 (H1) and dog 3 (H3) were given an enema preoperatively. After the local prostate application of the pharmaceutical composition through rectum, an antibiotic (Quinolon) was administered in normal doses.
The controlled release pharmaceutical composition was composed of a calcium sulphate ceramic and 2-hydroxy-flutamide (Catalogue No. 161.01, from Micromol). To prepare the implant, a calcium sulfate hemi-hydrate (Calcium Sulfate-0.5-hydrate, Product No. 12090, from Riedel-de Haen) is mixed as a fine-grained powder with water and the active agent to form an injectable paste. The paste solidifies in-vivo in about 5 minutes to a solid implant. The ceramic powder to water ratio is 1:2 and the dose of active agent (30, 60 or 120 mg) is mixed with a total 0.8 ml of paste.
The controlled release pharmaceutical composition was inserted locally into the prostate tissue through needles by ultrasound guidance. The animals were under general anesthesia during the insertion procedure. The needle (15 cm long with an outer diameter of 0.9 mm) was inserted into the prepared rectum (an enema was given preoperatively) and was inserted through the rectal and abdominal wall and positioned in the prostate tissue by ultrasound guidance. The pharmaceutical composition was given as multiple thin strings of approximately 12 mm length and with a diameter of 1-2 mm.
After administration of the controlled release pharmaceutical composition in the prostate tissue, blood samples were taken during 3 weeks. Samples of 1.0 ml were taken from the Cephalic vein at day 0, after 6 hours and then in the morning at day 1, 2, 3, 4, 5, 6, 9, 12, 14, 16, 19 and 20 following the administration of the implant. The blood samples were immediately centrifuged at 3000 rpm and the plasma samples were frozen at −20° C. until analysis.
After day 20, each dog was terminated with an intravenous dose of a mixture of pentobarbital and potassium. The following organs were surgical removed and frozen: prostate, testis, liver and kidney for the assessment of effect and safety. These organs were carefully examined as a consequence of the local tissue exposure of 2-hydroxy-flutamide and the ceramic-based implant.
Quantification of 2-hydroxy-flutamide in plasma and tissue samples was done by HPLC-MS. HPLC was performed with a Surveyor HPLC system equipped with a CTC Pal autosampler. The analytical column was a Zorbax Eclipse XDB-18 (2.1 mm×50 mm, particle size 5 μm) connected to a guard column. The eluent consisted of solvent A (aqueous formic acid 0.1%) and B (acetonitrile), a linear gradient from 25 to 90% of solvent B in 5 minutes was applied. The proportion of solvent B was then lowered to 25% in one minute and was allowed to equilibrate at this level for two minutes prior to the next injection. The volumetric flow-rate was 200 μL/min and the injection volume was 20 μL. The HPLC column outlet was coupled to a TSQ Quantum Ultra tandem triple quadrupole mass spectrometer (ThermoFinnigan, San José, Calif., USA). The transition of m/z 291 [M-H]^−→205 was used for 2-hydroxy-flutamide and m/z 316 [M-H]^−→273 was used for nilutamide (internal standard). The limit of quantification was 0.50 ng/ml in dog plasma. Calibration samples were prepared by spiking blank plasma samples with 100 μL of solutions of 2-hydroxy-flutamide at different concentrations. […]

[2] = Plasma pharmacokinetics after local prostate implant in male beagle dogs (Example 3); assay type: in vivo, dog; settings: for F (bioavailability): beagle dog; for F (bioavailability) / bioavailability: approximated with average i.v. clearance of Example 1; for half-life: read-out: t½ (converted); for bioavailability: iv, read-out: F (bioavailability)
Procedure: The dog has been selected as the test model because of its proven suitability in this type of study. The study was performed in 12 male beagle dogs from Harlan Winkelmann GmbH, Germany.
The sterile controlled release implant was composed of ceramic compounds and 2-hydroxyflutamide. Storage and handling instructions were given. The composition of the formulation of the low and high dose was 250 mg of 2-hydroxyflutamide +2.25 g calcium sulphate di-hydrat +5.0 g calcium sulphate hemi-hydrate and it was mixed with solution: 3.5 ml of water solution (with 1% acetic acid and 1% methyl cellulose).
The final formulation work was done during sterile conditions by trained personal at the experimental day. The amount injected into each lobe of the androgen sensitive bulbourethral gland was about 2.0-3.0 ml for the low dose (250 mg) and 4.0-6.0 ml of the high dose (500 mg).
The animals were fasted for at least 12 hours prior to the insertion procedure on Day 1. The implant drug delivery system was inserted locally into the prostate tissue, via rectum, through sterile needles during rectal ultrasound guidance. Each animal was under anesthesia during the insertion procedure.
Blood samples for pharmacokinetic was collected as follows: On Day 1: Pre-insertion and 6 hours after insertion. Blood samples were sampled in the morning on Days 2, 3, 4, 5, 6 and 7. During the rest of the study blood samples were collected once a week.
Blood samples of approximately 3 ml were drawn from the jugular vein. The blood was sampled into vacutainers containing EDTA as anticoagulant. The blood was placed in ice water until centrifugation (10 min, 1270 G, +4° C.). The plasma was transferred to Nunc cryotubes (Nunc, Denmark) and frozen at −18° C. or below and sent with dry ice to Swedish Veterinary Institute, Uppsala for analysis.
The plasma pharmacokinetic variables were calculated using standard pharmacokinetic methods and are given for both implant doses of 250 mg and 500 mg in Tables 6 and 7. The bioavailability (F) was approximated by using the average value for clearance of 2-hydroyflutamide when it was given by an intravenous dose in the dog study presented in Example 1.

[3] = Plasma pharmacokinetics and tissue level after controlled release implant into bulbourethral gland of male sheep (Example 2); assay type: in vivo; settings: three moths after the injection
[4] = male, Labrador, plasma, dog H2, 60 mg local prostate implant
[5] = male, Labrador, plasma, dog H3, 30 mg local prostate implant
[6] = male, Labrador, plasma, dog H4, 120 mg local prostate implant
[7] = beagle dog plasma, local prostate implant 250 mg, individual animals
[8] = beagle dog plasma, local prostate implant 500 mg, individual animals
[9] = male, beagle, dog, plasma, 250 mg, beagle dogs, local prostate implant 250 mg, Mean of four animals
[10] = male, beagle, dog, plasma, 500 mg, beagle dogs, local prostate implant 500 mg, Mean of four animals

**Q.** Which “concentration in the prostate tissue” value ([1]; dogs, after three weeks of treatment with local implant) does the source give for `CC(C)(O)C(=O)Nc1ccc([N+](=O)[O-])c(C(F)(F)F)c1` [2-hydroxy-flutamide] here?
**A.** not possible to quantify

**Q.** What about the “Cmax after intravenous dosing relative to Cmax after local implant dosing” value ([1]; dogs, i.v. 25 mg versus local implant 120 mg) of the same molecule?
**A.** about 6 times

**Q.** And the half-life ([1]; male, Labrador, dog, plasma, 30 mg, dog H3, 30 mg local prostate implant, read-out: t1/2 (converted))?
**A.** 2100 min

**Q.** And the half-life ([1]; male, Labrador, dog, plasma, 60 mg, dog H2, 60 mg local prostate implant, read-out: t1/2 (converted))?
**A.** 2700 min

**Q.** What about the half-life ([1]; male, Labrador, dog, plasma, 120 mg, dog H4, 120 mg local prostate implant, read-out: t1/2 (converted)) of the same molecule?
**A.** 2460 min

**Q.** And the half-life ([1]; male, Labrador, dog, plasma, 120 mg, given in the ceramic composition, three dosed dogs (30, 60, 120 mg), read-out: elimination half-life)?
**A.** 2100 to 2700 min

**Q.** And the bioavailability ([1]; male, Labrador, dog, plasma, dogs, local prostate implant, on average, read-out: bioavailability from the intraprostate tissue (approximation))?
**A.** > 100%

**Q.** And the AUC [1, 4]?
**A.** 4020 ng·h/mL

**Q.** What about the Cmax [1, 4] of the same molecule?
**A.** 69.5 ng/mL

**Q.** What about the Tmax [1, 4] of the same molecule?
**A.** 6 h

**Q.** And the AUC [1, 5]?
**A.** 990 ng·h/mL

**Q.** What about the Cmax [1, 5] of the same molecule?
**A.** 26.4 ng/mL

**Q.** What about the Tmax [1, 5] of the same molecule?
**A.** 6 h

**Q.** What about the AUC [1, 6] of the same molecule?
**A.** 9410 ng·h/mL

**Q.** What about the Cmax [1, 6] of the same molecule?
**A.** 142 ng/mL

**Q.** What about the Tmax [1, 6] of the same molecule?
**A.** 24 h

**Q.** And the AUC [2, 7]?
**A.** 8701 ng·h/mL and 5446 ng·h/mL and 5921 ng·h/mL and 13237 ng·h/mL

**Q.** What about the Cmax [2, 7] of the same molecule?
**A.** 97 ng/mL and 58 ng/mL and 85 ng/mL and 131 ng/mL

**Q.** What about the Tmax [2, 7] of the same molecule?
**A.** 48 h

**Q.** And the t½ [2, 7]?
**A.** 34 h and 39 h and 26 h

**Q.** What about the AUC [2, 8] of the same molecule?
**A.** 13009 ng·h/mL and 13420 ng·h/mL and 11631 ng·h/mL

**Q.** And the Cmax [2, 8]?
**A.** 202 ng/mL and 133 ng/mL

**Q.** And the Tmax [2, 8]?
**A.** 48 h

**Q.** And the t½ [2, 8]?
**A.** 57 h and 59 h and 34 h and 28 h

**Q.** And the “F (bioavailability)” value ([2]; local prostate implant 250 mg, individual animals)?
**A.** 74% and 46% and 50% and 112%

**Q.** What about the “F (bioavailability)” value ([2]; local prostate implant 500 mg, individual animals) of the same molecule?
**A.** 86% and 110% and 113% and 98%

**Q.** And the half-life ([2]; male, beagle, dog, plasma, 250 mg, beagle dog plasma, local prostate implant 250 mg, individual animals)?
**A.** 1920 min

**Q.** And the AUC ([2]; male, beagle, dog, plasma, 250 mg, beagle dogs, local prostate implant 250 mg, Mean of four animals, read-out: AUC)?
**A.** 8330 ng·h/mL

**Q.** What about the Cmax ([2]; male, beagle, dog, plasma, 250 mg, beagle dogs, local prostate implant 250 mg, Mean of four animals, read-out: Cmax) of the same molecule?
**A.** 93 ng/mL

**Q.** And the Tmax ([2]; male, beagle, dog, plasma, 250 mg, beagle dogs, local prostate implant 250 mg, Mean of four animals, read-out: tmax)?
**A.** 17 h

**Q.** What about the half-life [2, 9] of the same molecule?
**A.** 1980 min

**Q.** And the AUC ([2]; male, beagle, dog, plasma, 500 mg, beagle dog plasma, local prostate implant 500 mg, individual animals, read-out: AUC)?
**A.** 10200 ng·h/mL

**Q.** And the Cmax ([2]; male, beagle, dog, plasma, 500 mg, beagle dog plasma, local prostate implant 500 mg, individual animals, read-out: Cmax)?
**A.** 102 ng/mL

**Q.** What about the AUC ([2]; male, beagle, dog, plasma, 500 mg, beagle dogs, local prostate implant 500 mg, Mean of four animals, read-out: AUC) of the same molecule?
**A.** 12100 ng·h/mL

**Q.** What about the Cmax ([2]; male, beagle, dog, plasma, 500 mg, beagle dogs, local prostate implant 500 mg, Mean of four animals, read-out: Cmax) of the same molecule?
**A.** 145 ng/mL

**Q.** And the Tmax ([2]; male, beagle, dog, plasma, 500 mg, beagle dogs, local prostate implant 500 mg, Mean of four animals, read-out: tmax)?
**A.** 27 h

**Q.** And the half-life [2, 10]?
**A.** 2700 min

**Q.** And the bioavailability [2, 9]?
**A.** 71%

**Q.** And the bioavailability [2, 10]?
**A.** 102%

**Q.** And the “levels in prostate gland” value [3]?
**A.** possible to quantify
